Assay results taken from patent US9096596B2 (Janssen Pharmaceutica NV, priority 2013, dated 2015).

Target: rat P2X7 (Rattus norvegicus (Rat), UniProt Q64663)
Test: Ca2+ flux (FLIPR) in 1321N1 cells expressing recombinant rat P2X7 channel
Assay type: cell-based
Settings: 250 μM BzATP, Calcium-4 dye
Method: 1321N1 cells expressing the recombinant human, rat or mouse P2X7 channel was cultured in HyQ DME/(HyClone/Dulbecco's Modified Eagle Medium) high glucose supplemented with 10% Fetal Bovine Serum (FBS) and appropriate selection marker. Cells were seeded at a density of 25000 cells/well (96-well clear bottom black walled plates) in 100 μl volume/well. On the day of the experiment, cell plates were washed with assay buffer, containing (in mM): 130 NaCl, 2 KCl, 1 CaCl2, 1 MgCl2, 10 HEPES, 5 glucose; pH 7.40 and 300 mOs. After the wash, cells were loaded with the Calcium-4 dye (Molecular Device) and incubated in the dark for 60 minutes. Test compounds were prepared at 250× the test concentration in neat DMSO. Intermediate 96-well compound plates were prepared by transferring 1.2 μL of the compound into 300 μL of assay buffer. A further 3× dilution occurred when transferring 50 μL/well of the compound plate to 100 μL/well in the cell plate. Cells were incubated with test compounds and dye for 30 minutes. […] The fluorescence change was measured 180 seconds after adding the agonist.

rat P2X7, sequence (Q64663 whole entry): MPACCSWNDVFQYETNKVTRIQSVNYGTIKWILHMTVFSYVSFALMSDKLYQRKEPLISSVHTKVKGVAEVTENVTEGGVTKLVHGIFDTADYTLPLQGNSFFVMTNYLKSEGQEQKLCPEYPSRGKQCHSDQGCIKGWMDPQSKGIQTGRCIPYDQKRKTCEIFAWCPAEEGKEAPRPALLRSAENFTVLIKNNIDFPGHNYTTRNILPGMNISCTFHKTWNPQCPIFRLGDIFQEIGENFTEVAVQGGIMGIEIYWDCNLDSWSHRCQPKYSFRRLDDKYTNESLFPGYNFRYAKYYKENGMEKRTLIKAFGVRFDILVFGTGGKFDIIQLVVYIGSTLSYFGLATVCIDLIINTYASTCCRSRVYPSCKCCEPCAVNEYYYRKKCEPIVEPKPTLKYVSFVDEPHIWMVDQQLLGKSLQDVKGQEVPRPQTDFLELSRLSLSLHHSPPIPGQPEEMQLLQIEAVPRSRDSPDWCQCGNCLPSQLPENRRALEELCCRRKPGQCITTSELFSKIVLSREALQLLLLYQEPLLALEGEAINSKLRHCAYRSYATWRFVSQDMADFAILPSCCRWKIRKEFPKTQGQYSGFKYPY

Point of comparison: `C[C@@H]1c2ncnc(-c3ccn[nH]3)c2CCN1C(=O)c1cccc(C(F)(F)F)c1Cl` (single isomer, unassigned) [Example 113, (R*)-(2-chloro-3-(trifluoromethyl)phenyl)(8-methyl-4-(1H-pyrazol-5-yl)-5,6-dihydropyrido[3,4-d]pyrimidin-7(8H)-yl)methanone], IC50 9.1 nM. Against it:
- Cc1nc2c(c(-c3ccn[nH]3)n1)C[C@@H](C)N(C(=O)c1cccc(Cl)c1Cl)C2 (single isomer, unassigned) [Example 68, (R*)-(2,3-dichlorophenyl)(2,6-dimethyl-4-(1H-pyrazol-5-yl)-5,6-dihydropyrido[3,4-d]pyrimidin-7(8H)-yl)methanone] — within 1.5-fold, 8.8 nM
- Cc1nc2c(c(-c3ccn[nH]3)n1)C[C@H](C)N(C(=O)c1cccc(Cl)c1Cl)C2 (single isomer, unassigned) [Example 69, (S*)-(2,3-dichlorophenyl)(2,6-dimethyl-4-(1H-pyrazol-5-yl)-5,6-dihydropyrido[3,4-d]pyrimidin-7(8H)-yl)methanone] — 100-fold higher, 938 nM
- Cc1nc2c(c(-c3ccn[nH]3)n1)C[C@@H](C)N(C(=O)c1ccc(F)cc1Cl)C2 (single isomer, unassigned) [Example 91, (R*)-(2-chloro-4-fluorophenyl)(2,6-dimethyl-4-(1H-pyrazol-5-yl)-5,6-dihydropyrido[3,4-d]pyrimidin-7(8H)-yl)methanone] — 15-fold higher, 132 nM
- Cc1nc2c(c(-c3ccn[nH]3)n1)C[C@H](C)N(C(=O)c1ccc(F)cc1Cl)C2 (single isomer, unassigned) [Example 92, (S*)-(2-chloro-4-fluorophenyl)(2,6-dimethyl-4-(1H-pyrazol-5-yl)-5,6-dihydropyrido[3,4-d]pyrimidin-7(8H)-yl)methanone] — 650-fold higher, 5960 nM
- C[C@H]1c2ncnc(-c3ccn[nH]3)c2CCN1C(=O)c1cccc(C(F)(F)F)c1Cl (single isomer, unassigned) [Example 114, (S*)-(2-chloro-3-(trifluoromethyl)phenyl)(8-methyl-4-(1H-pyrazol-5-yl)-5,6-dihydropyrido[3,4-d]pyrimidin-7(8H)-yl)methanone] — 18-fold higher, 166 nM
- C[C@@H]1c2ncnc(-c3ccn[nH]3)c2CCN1C(=O)c1ccc(F)c(Cl)c1Cl (single isomer, unassigned) [Example 119, (R*)-(2,3-dichloro-4-fluorophenyl)(8-methyl-4-(1H-pyrazol-5-yl)-5,6-dihydropyrido[3,4-d]pyrimidin-7(8H)-yl)methanone] — 3.1-fold higher, 28.4 nM
- C[C@H]1c2ncnc(-c3ccn[nH]3)c2CCN1C(=O)c1ccc(F)c(Cl)c1Cl (single isomer, unassigned) [Example 120, (S*)-(2,3-dichloro-4-fluorophenyl)(8-methyl-4-(1H-pyrazol-5-yl)-5,6-dihydropyrido[3,4-d]pyrimidin-7(8H)-yl)methanone] — 170-fold higher, 1510 nM
- Cc1cccc(C(=O)N2CCc3c(ncnc3-c3ccn[nH]3)C2)c1Cl [Example 8, 7-[(2-Chloro-3-methylphenyl)carbonyl]-4-(1H-pyrazol-5-yl)-5,6,7,8-tetrahydropyrido[3,4-d]pyrimidine] — higher, > 10000 nM
- Cc1nc2c(c(-n3nccn3)n1)CCN(C(=O)c1cccc(C(F)(F)F)c1Cl)C2 [Example 47, 7-{[2-Chloro-3-(trifluoromethyl)phenyl]carbonyl}-2-methyl-4-(2H-1,2,3-triazol-2-yl)-5,6,7,8-tetrahydropyrido[3,4-d]pyrimidine] — within 1.5-fold, 7.9 nM
